The test system of one experiment is Smoothened (Smo). The settings on record: from the literature (Myers Dev Cell 2013; Corcoran PNAS 2006; Nachtergaele Nat Chem Bio 2012); cited from earlier work.
Experiment [1] concerns Hedgehog signalling (Gli1 mRNA). In words: Hedgehog signalling assay using quantitative RT-PCR (Gli1 mRNA in NIH/3T3 cells). In kind it is cell-based. The conditions noted are these: sterol treatment ~16 hours, different concentrations (FIG. 6, 7). How it is done:
NIH/3T3 cells were grown to confluency in Dulbecco's Modified Eagle's Medium (DMEM) containing 10% Fetal Bovine Serum (FBS, Optima Grade, Atlanta Biologicals). Confluent cells were exchanged into 0.5% FBS DMEM for 24 hours to allow ciliogenesis prior to treatment with sterols in DMEM containing 0.5% FBS for ˜16 hours. SHH protein carrying a C-terminal hexa-histidine tag was expressed in bacteria and purified as described previously [Bishop Nat Struct Mol Biol 2009]. The mRNA levels of Gli1, a direct Hh target gene commonly used as a metric for signalling strength, were measured using the Power SYBR Green Cells-To-CT kit (Thermo Fisher Scientific). The primers used are Gli1 (forward primer: 5′-[…]-3′ and reverse primer: 5′-[…]-3′), Gapdh (forward primer: 5′-[…]-3′ and reverse primer: 5′-[…]-3′). Transcript levels relative to Gapdh were calculated using the Δelta-Ct method. Each qRT-PCR experiment, which was repeated twice, included two biological replicates, each with two technical replicates.

Turning to `CC(C)CCC[C@](C)(O)[C@H]1CC[C@H]2[C@@H]3CC=C4C[C@@H](O)CC[C@]4(C)[C@H]3CC[C@@]21C` [20S-Hydroxycholesterol, reference compound], the “activation of Smo” value in the experiment with Smoothened (Smo) is reported as “activate Smo in vitro”.
For `C[C@@H](CO)CCC[C@@H](C)[C@H]1CC[C@H]2[C@@H]3C(=O)C=C4C[C@@H](O)CC[C@]4(C)[C@H]3CC[C@]12C` [Compound XX, 3β,26-Dihydroxycholest-5-en-7-one], the “effect on Hedgehog signalling (mRNA levels of Gli1)” value in experiment [1] is reported as “activator of Hedgehog signalling”. Moreover, the “activation of Smo” value with Smoothened (Smo) is reported as “activators of Smo”.
As to `C[C@H](CCC(=O)O)[C@H]1CC[C@H]2[C@@H]3C(=O)C=C4C[C@@H](O)CC[C@]4(C)[C@H]3CC[C@]12C` [Compound XXI, 3β-Hydroxy-7-oxochol-5-en-24-oic acid], the “effect on Hedgehog signalling (mRNA levels of Gli1)” value in experiment [1] is listed as “inhibitor of Hedgehog signalling”.
Regarding `C[C@H](CCCC(C)(C)O)[C@H]1CC[C@H]2[C@@H]3C(=O)C=C4C[C@@H](O)CC[C@]4(C)[C@H]3CC[C@]12C` [Compound XXII, 3β,25-dihydroxycholest-5-en-7-one], in the experiment with Smoothened (Smo), the “activation of Smo” value is listed as “activators of Smo”.
